Assay results: patent US20060110401A1, “Mixture of peptides from c and ns3 proteins of the hepatitis c virus and applications thereof” (priority 2002, published 2006)
Read-outs that look alike come from different tables or passages of the source. Residues, ends and D or L forms follow the SMILES beside them.

Experiments:
HLA-DR1 (DRB1*0101) = target: T1, HLA-DR1 (DRB1*0101) (Homo sapiens, UniProt P01903+P01911, A100R/D57E/F55L/F60I/F76Y/I96L/L162R/M171V/P40L/Q125E/R42F/V115G/Y59C); assay: biochemical; assay type: binding; conditions: for IC50: DRB1*0101
T1 construct: endogenous in cells; host or cells: homozygous EBV-transformed human B lymphocyte lines; immunopurified with antibody L243

HLA-DR4 (DRB1*0401) = target: T2, HLA-DR4 (DRB1*0401) (Homo sapiens, UniProt P01903+P01911, A100K/A169T/F76Y/I96L/K127E/L162R/M171V/N62H/P40V/Q125Y/R42H/S133A/S149N/S66Y/V115G/V209L/W38E); assay: biochemical; assay type: binding
T2 construct: endogenous in cells; host or cells: homozygous EBV-transformed human B lymphocyte lines; immunopurified with antibody L243

HLA-DR11 (DRB1*1101) = HLA-DR11 (DRB1*1101) (Homo sapiens, UniProt P01903+P01911, A100R/A169T/A87E/I96F/K41T/L162R/M171V/P40S/Q125H/Q178H/Q39Y/Q99D/R42S/S66Y/T262R/V115G/W38E); assay: biochemical; assay type: binding
Sequence of HLA-DR11 (DRB1*1101) (P01903 26-254 limits assumed, other chains not shown): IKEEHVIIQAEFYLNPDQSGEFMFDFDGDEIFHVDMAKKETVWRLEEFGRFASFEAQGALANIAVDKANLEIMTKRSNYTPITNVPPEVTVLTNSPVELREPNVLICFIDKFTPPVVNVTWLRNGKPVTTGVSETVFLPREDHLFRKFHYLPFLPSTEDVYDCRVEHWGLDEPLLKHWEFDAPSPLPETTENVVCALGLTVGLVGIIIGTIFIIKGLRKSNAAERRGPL

HLA-DR15 (DRB1*1501) = target: T3, HLA-DR15 (DRB1*1501) (Homo sapiens, UniProt P01903+P01911); assay: biochemical; assay type: binding
T3 construct: endogenous in cells; host or cells: homozygous EBV-transformed human B lymphocyte lines; immunopurified with antibody L243

HLA-DRB4 (DRB4*0101) = target: T4, HLA-DRB4 (DRB4*0101) (Homo sapiens, UniProt P01903+P13762, G164S); assay: biochemical; assay type: binding
T4 construct: endogenous in cells; host or cells: homozygous EBV-transformed human B lymphocyte lines; immunopurified with antibody L243

HLA-DRB5 (DRB5*0101) = target: T5, HLA-DRB5 (DRB5*0101) (Homo sapiens, UniProt P01903+Q30154); assay: biochemical; assay type: binding
T5 construct: endogenous in cells; host or cells: homozygous EBV-transformed human B lymphocyte lines; immunopurified with antibody L243

[1] = tested on: T lymphocytes derived from PBMCs from patients chronically infected with HCV; assay type: cell-based, human; conditions: supernatant 48 h, —: not detected
DR3 = assay: DR3
From the text: (§1) Table printed on a drawing sheet, Figure 2
Where the first naming reader finds the target: head: DR3

DR4 = assay: DR4
DR13 = assay: DR13
From the text: as §1
Where the first naming reader finds the target: head: DR13

DR15 = assay: DR15
DRB5 = assay: DRB5
DP402 = assay: DP402
HLA-DR7 (DRB1*0701) = HLA-DR7 (DRB1*0701) (Homo sapiens, UniProt P01903+P01911, A100R/A102G/A103Q/D57E/D86V/E43K/F76Y/K127E/L162R/M171V/P40G/Q125H/Q99D/R33Q/R42Y/R54Q/S133A/S66F/T210M/V115G/Y107V/Y59L/Y89S); assay: biochemical; assay type: binding; conditions: read-out: binds with good affinity to DR7
HLA-DR13 (DRB1*1301) = HLA-DR13 (DRB1*1301) (Homo sapiens, UniProt P01903+P01911, A100E/A169T/K41T/L162R/M171V/P40S/Q125H/Q178H/Q39Y/Q99D/R42S/S66N/T262R/W38E/Y61H); assay: biochemical; assay type: binding
DR1 = assay: DR1
DR7 = assay: DR7
DRB4 = assay: DRB4
From the text: as §1
Where the first naming reader finds the target: head: DRB4

DR11 = assay: DR11
From the text: as §1
Where the first naming reader finds the target: head: DR11

HLA-DR3 (DRB1*0301) = target: T6, HLA-DR3 (DRB1*0301) (Homo sapiens, UniProt P01903+P01911, A100K/A102G/A103R/A169T/F55Y/I96L/K41T/L162R/M171V/P40S/Q125H/Q178H/Q39Y/R42S/S66N/T106N/T262R/W38E/Y61H); assay: biochemical; assay type: binding; conditions: tracer MT 2-16, read-out: IC50, binding to HLA-DR3
T6 construct: endogenous in cells; host or cells: homozygous EBV-transformed human B lymphocyte lines; immunopurified with antibody L243

[2] = competition with biotinylated tracer HA 306-318, read-out: IC50, binding to HLA-DR1
[3] = read-out: binds with good affinity to DR1
[4] = read-out: binds with good affinity to DR11
[5] = read-out: binds with good affinity to DRB5
[6] = tracer HA 306-318, read-out: IC50, binding to HLA-DR4
[7] = tracer HA 306-318, read-out: IC50, binding to HLA-DR11
[8] = tracer B1 21-36, read-out: IC50, binding to HLA-DR13
[9] = tracer E2/E168, read-out: IC50, binding to HLA-DRB4

SMILES	IC50 (HLA-DR1 (DRB1*0101); [2])	IC50 (HLA-DR1 (DRB1*0101); [3])	IC50 (HLA-DR11 (DRB1*1101); [4])	IC50 (HLA-DRB5 (DRB5*0101); [5])	IC50 (DR4)	IC50 (DR13)	IC50 (DRB5)	IC50 (DP402)	IC50 (HLA-DR3 (DRB1*0301))	IC50 (HLA-DR4 (DRB1*0401); [6])	IC50 (HLA-DR11 (DRB1*1101); [7])	IC50 (HLA-DR13 (DRB1*1301); [8])	IC50 (HLA-DRB4 (DRB4*0101); [9])	further results
CC[C@H](C)[C@H](NC(=O)CNC(=O)[C@@H](NC(=O)[C@H](C)NC(=O)[C@H](Cc1c[nH]cn1)NC(=O)CN)C(C)C)C(=O)N[C@@H](Cc1ccccc1)C(=O)N[C@@H](CCCNC(=N)N)C(=O)N[C@@H](C)C(=O)N[C@@H](C)C(=O)N[C@H](C(=O)N[C@@H](CS)C(=O)N[C@H](C(=O)N[C@@H](CCCNC(=N)N)C(=O)NCC(=O)N[C@H](C(=O)N[C@@H](C)C(=O)N[C@@H](CCCCN)C(=O)N[C@@H](C)C(=O)N[C@H](C(=O)N[C@@H](CC(=O)O)C(=O)N1CCC[C@H]1C(=O)O)C(C)C)C(C)C)[C@@H](C)O)C(C)C [15N 1174-1195] (H-GHAVGIFRAAVCTRGVAKAVDP-OH; N-terminus and C-terminus assumed)	3 nM	< 1000 nM	< 1000 nM	< 1000 nM	30 nM	10000 nM	20 nM	2980 nM						affinity for HLA-DR1 (in words) (HLA-DR1 (DRB1*0101); legend of FIG. 4): high affinity; IC50 (HLA-DR4 (DRB1*0401); read-out: binds with good affinity to DR4): < 1000 nM; IC50 (HLA-DR15 (DRB1*1501); DRB1*1501, read-out: binds with good affinity to DR15): < 1000 nM; IC50 (HLA-DRB4 (DRB4*0101); read-out: binds with good affinity to DRB4): < 1000 nM; IL10 ([1]; patient 067): 55 pg/mL; IL10 ([1]; patient 078): 43 pg/mL; IC50 (DR3): 30000 nM; IC50 (DR15): 90 nM
CC[C@H](C)[C@H](NC(=O)[C@@H](NC(=O)[C@H](CC(=O)O)NC(=O)[C@H](C)NC(=O)[C@H](Cc1c[nH]cn1)NC(=O)[C@H](CCCNC(=N)N)NC(=O)[C@@H](NC(=O)[C@@H](NC(=O)[C@H](CC(C)C)NC(=O)[C@H](Cc1ccc(O)cc1)NC(=O)[C@H](CC(C)C)NC(=O)[C@H](CC(=O)O)NC(=O)[C@H](CO)NC(=O)[C@@H](N)CO)C(C)C)[C@@H](C)O)C(C)C)C(=O)N1CCC[C@H]1C(=O)N[C@H](C(=O)N[C@@H](CCCNC(=N)N)C(=O)N[C@@H](CCCNC(=N)N)C(=O)N[C@@H](CCCNC(=N)N)C(=O)NCC(=O)N[C@@H](CC(=O)O)C(=O)N[C@@H](CO)C(=O)N[C@@H](CCCNC(=N)N)C(=O)NCC(=O)N[C@@H](CO)C(=O)N[C@@H](CC(C)C)C(=O)N[C@@H](CC(C)C)C(=O)O)C(C)C [13N 1127-1153]		< 1000 nM	< 1000 nM	< 1000 nM	3500 nM	300 nM	500 nM	8710 nM						IC50 (HLA-DR7 (DRB1*0701)): < 1000 nM; IC50 (HLA-DR13 (DRB1*1301); read-out: binds with good affinity to DR13): < 1000 nM; IC50 (DR1): 700 nM; IC50 (DR7): 17 nM; IC50 (DRB4): 2500 nM; IC50 (DR11): 17 nM
CC[C@H](C)[C@H](NC(=O)[C@H](CS)NC(=O)CN)C(=O)N[C@H](C(=O)N[C@H](C(=O)N[C@@H](CO)C(=O)N[C@@H](CC(C)C)C(=O)N[C@H](C(=O)NCC(=O)N[C@@H](CCCNC(=N)N)C(=O)N[C@@H](CC(=O)O)C(=O)N[C@@H](CCCCN)C(=O)N[C@@H](CC(N)=O)C(=O)N[C@@H](CCC(N)=O)C(=O)N[C@H](C(=O)O)C(C)C)[C@@H](C)O)[C@@H](C)O)[C@@H](C)O [9N 1041-1055] (H-GCITTSLTGRDKNQV-OH; N-terminus and C-terminus assumed)	190 nM								62500 nM	2900 nM	2600 nM	> 100000 nM	65000 nM	IC50 (HLA-DR15 (DRB1*1501); read-out: IC50, binding to HLA-DR15): 525 nM; IC50 (HLA-DRB5 (DRB5*0101); tracer HA 306-318, read-out: IC50, binding to HLA-DRB5): 11 nM
CC[C@H](C)[C@H](NC(=O)[C@H](Cc1c[nH]cn1)NC(=O)[C@@H](NC(=O)[C@H](CC(C)C)NC(=O)CNC(=O)[C@@H](NC(=O)[C@H](Cc1ccccc1)NC(=O)[C@@H](NC(=O)CNC(=O)[C@@H](N)CCC(=O)O)C(C)C)[C@@H](C)O)[C@@H](C)O)C(=O)N[C@@H](CC(=O)O)C(=O)N[C@@H](C)C(=O)N[C@@H](Cc1c[nH]cn1)C(=O)N[C@@H](Cc1ccccc1)C(=O)N[C@@H](CC(C)C)C(=O)O [29N 1559-1573]									> 100000 nM	3000 nM	7 nM	> 100000 nM	> 100000 nM	
